Assay results: patent US20250243180A1, “TARGETED PROTEIN DEGRADATION” (Monte Rosa Therapeutics AG, priority 2023, published 2025)
Like-named read-outs stand apart in the source and are kept apart here.

Columns and labels:
CRBN-DDB1 = CRBN-DDB1 (Homo sapiens (Human), UniProt Q96SW2); assay: Compound binding to CRBN by HTRF assay
Procedure, shortened: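 HTRF displacement of Cy5-thalidomide probe (100 nM) from His-tagged CRBN-DDB1 (2.5 nM) with anti-His terbium cryptate, in HEPES/NaCl/TCEP/EDTA/Tween20 buffer; 11-point 1:3 dilution series, 30 min at ambient temperature. Signal (665/620 nm) normalized to lenalidomide and DMSO controls; EC50 fitted, Ki by Cheng-Prusoff from geometric mean EC50.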

NEK7 = NEK7 (Homo sapiens (Human), UniProt Q8TDX7+Q96SW2); assay: NEK7 NanoBiT degradation assay in Cal51 NEK7 NanoBiT cell line; format: cell-based; conditions: Cal51 NEK7 NanoBiT cells, 24 hours; for Dmax: CAL-51
NEK7, sequence (Q8TDX7 whole entry): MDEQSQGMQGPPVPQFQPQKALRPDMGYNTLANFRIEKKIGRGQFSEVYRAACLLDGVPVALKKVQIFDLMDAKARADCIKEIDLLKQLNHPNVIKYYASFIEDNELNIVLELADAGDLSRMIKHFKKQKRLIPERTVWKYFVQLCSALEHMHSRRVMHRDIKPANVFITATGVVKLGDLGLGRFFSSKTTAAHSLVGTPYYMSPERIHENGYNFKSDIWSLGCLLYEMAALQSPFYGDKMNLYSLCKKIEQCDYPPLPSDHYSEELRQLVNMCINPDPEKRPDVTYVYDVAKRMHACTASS
NEK7, sequence (Q96SW2 whole entry): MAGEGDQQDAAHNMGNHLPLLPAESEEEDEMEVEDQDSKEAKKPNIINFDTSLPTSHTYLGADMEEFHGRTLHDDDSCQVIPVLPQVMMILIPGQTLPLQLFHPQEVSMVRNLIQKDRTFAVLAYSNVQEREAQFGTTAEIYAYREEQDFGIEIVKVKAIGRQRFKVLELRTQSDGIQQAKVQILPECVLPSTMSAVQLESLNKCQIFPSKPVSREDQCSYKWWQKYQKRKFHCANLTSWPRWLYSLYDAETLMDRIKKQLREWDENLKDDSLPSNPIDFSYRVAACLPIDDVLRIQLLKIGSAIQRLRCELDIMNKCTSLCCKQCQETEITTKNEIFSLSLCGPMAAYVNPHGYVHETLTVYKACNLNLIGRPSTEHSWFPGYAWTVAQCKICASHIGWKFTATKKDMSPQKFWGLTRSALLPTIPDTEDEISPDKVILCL
NEK7, sequence (Q16531 2-1140 partner): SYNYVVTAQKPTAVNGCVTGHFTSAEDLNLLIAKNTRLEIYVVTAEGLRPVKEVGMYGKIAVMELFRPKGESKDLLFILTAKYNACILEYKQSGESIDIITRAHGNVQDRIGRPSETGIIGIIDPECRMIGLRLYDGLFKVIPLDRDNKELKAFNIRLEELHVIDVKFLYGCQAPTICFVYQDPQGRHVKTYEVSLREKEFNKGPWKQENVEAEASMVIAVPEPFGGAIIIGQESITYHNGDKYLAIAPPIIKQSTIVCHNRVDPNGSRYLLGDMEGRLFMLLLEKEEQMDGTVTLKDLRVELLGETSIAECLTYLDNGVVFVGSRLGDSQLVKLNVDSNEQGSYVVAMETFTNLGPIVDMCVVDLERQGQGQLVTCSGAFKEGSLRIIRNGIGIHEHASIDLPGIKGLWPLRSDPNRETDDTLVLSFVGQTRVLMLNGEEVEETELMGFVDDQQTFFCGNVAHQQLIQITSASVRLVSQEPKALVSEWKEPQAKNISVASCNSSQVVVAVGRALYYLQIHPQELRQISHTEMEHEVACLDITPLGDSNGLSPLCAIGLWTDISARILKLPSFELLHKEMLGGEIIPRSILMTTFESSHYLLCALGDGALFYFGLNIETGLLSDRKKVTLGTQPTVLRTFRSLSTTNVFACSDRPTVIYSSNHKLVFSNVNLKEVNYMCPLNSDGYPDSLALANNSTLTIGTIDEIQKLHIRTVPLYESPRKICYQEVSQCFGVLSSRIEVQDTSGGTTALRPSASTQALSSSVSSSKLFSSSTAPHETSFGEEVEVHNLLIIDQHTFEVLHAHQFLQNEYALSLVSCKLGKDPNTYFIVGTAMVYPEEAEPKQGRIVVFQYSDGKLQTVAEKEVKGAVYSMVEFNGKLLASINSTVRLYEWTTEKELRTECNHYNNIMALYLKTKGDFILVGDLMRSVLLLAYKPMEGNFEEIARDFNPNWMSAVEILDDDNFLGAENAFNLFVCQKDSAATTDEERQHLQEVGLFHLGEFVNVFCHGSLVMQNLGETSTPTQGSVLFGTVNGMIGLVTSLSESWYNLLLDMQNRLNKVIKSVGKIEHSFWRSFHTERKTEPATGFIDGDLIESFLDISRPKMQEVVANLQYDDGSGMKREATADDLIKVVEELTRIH
Procedure, shortened: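 Cal51 cells with CRISPR knock-in HiBiT-tagged endogenous NEK7 plus stable LgBiT, in live-cell Endurazine medium, seeded 16 h before dosing. Compounds at final 1 μM to 0.05 nM for 24 h at 37 °C, then luminescence read. Response normalized to plate controls and fitted with a 4-parameter logistic giving EC50.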

[1] = NEK7 degradation, read-out: NanoBiT Dmax
[2] = NEK7 degradation, read-out: NanoBiT DC50

CRBN-DDB1, sequence (Q96SW2 whole entry): as the sequence (Q96SW2 whole entry) above
CRBN-DDB1, sequence (Q16531 whole entry partner): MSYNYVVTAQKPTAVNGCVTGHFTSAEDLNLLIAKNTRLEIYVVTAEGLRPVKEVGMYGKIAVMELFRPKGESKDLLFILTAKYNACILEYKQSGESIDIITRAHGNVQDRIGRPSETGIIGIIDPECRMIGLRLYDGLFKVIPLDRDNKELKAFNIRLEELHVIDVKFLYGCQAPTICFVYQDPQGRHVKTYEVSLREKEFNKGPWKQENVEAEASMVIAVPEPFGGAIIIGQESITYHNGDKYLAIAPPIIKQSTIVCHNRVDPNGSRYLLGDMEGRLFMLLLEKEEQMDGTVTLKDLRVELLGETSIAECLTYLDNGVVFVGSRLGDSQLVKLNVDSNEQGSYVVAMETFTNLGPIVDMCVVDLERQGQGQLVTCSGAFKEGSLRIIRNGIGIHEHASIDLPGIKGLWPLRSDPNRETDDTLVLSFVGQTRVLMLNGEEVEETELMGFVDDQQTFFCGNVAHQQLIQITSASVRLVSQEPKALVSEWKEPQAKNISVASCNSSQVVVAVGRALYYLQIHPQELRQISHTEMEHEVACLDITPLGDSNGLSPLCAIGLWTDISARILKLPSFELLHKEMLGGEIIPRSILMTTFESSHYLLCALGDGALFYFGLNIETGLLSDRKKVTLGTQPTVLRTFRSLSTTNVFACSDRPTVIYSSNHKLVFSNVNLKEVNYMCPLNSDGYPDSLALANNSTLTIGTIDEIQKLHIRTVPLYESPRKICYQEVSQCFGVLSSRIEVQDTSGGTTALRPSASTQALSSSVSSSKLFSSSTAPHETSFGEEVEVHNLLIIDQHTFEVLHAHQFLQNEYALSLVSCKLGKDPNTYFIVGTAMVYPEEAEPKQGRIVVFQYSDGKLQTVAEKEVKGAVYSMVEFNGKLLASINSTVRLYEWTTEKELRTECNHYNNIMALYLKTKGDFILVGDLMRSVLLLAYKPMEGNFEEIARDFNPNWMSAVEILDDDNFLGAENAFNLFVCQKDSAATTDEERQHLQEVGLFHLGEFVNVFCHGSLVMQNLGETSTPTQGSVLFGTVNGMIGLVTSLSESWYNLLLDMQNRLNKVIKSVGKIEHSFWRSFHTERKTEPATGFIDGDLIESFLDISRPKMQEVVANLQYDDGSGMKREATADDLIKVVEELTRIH

EC50 (CRBN-DDB1) | EC50 (CRBN-DDB1; HTRF class, Cereblon binding) | Dmax (NEK7; read-out: NEK7 NanoBiT Dmax) | Dmax (NEK7; [1]) | DC50 (NEK7; read-out: NEK7 NanoBiT DC50) | DC50 (NEK7; [2]) | SMILES
190 nM | 100 to 1000 nM | 92% | > 75% | 11 nM | ≤ 100 nM | Cc1cc(C(C)(C)C(=O)NCc2cc(Cl)c(C3CCC(=O)NC3=O)c(Cl)c2)cc(=O)n1C (stereo not drawn) [Compound 53]
60 nM | ≤ 100 nM | 97% | > 75% | 1 nM | ≤ 100 nM | CC(C)(C(=O)NCc1cc(Cl)c(C2CCC(=O)NC2=O)c(Cl)c1)c1cccc(NS(C)(=O)=O)c1 (stereo not drawn) [Compound 54]
100 nM | 100 to 1000 nM | 97% | > 75% | 1 nM | ≤ 100 nM | CC(C)(C(=O)NCc1cc(Cl)c(C2CCC(=O)NC2=O)c(Cl)c1)c1ccn2ccnc2c1 (stereo not drawn) [Compound 55]
470 nM | 100 to 1000 nM | 67% | 50 to 75% | 244 nM | 100 to 1000 nM | CC(C)(C(=O)NCc1ccc(C2CCC(=O)NC2=O)c(Cl)c1)c1ccc(S(N)(=O)=O)cc1 (stereo not drawn) [Compound 56]
130 nM | 100 to 1000 nM | 94% | > 75% | 3 nM | ≤ 100 nM | CC(C)(C(=O)NCc1cc(Cl)c(C2CCC(=O)NC2=O)c(Cl)c1)c1ccc(C(N)=O)c(F)c1 (stereo not drawn) [Compound 57]
130 nM | 100 to 1000 nM | 92% | > 75% | 6 nM | ≤ 100 nM | CN(C)S(=O)(=O)c1ccc(C(C)(C)C(=O)NCc2cc(Cl)c(C3CCC(=O)NC3=O)c(Cl)c2)cc1 (stereo not drawn) [Compound 58]
140 nM | 100 to 1000 nM | 87% | > 75% | 28 nM | ≤ 100 nM | CC(C)(C(=O)NCc1cc(Cl)c(C2CCC(=O)NC2=O)c(Cl)c1)c1cc(F)[nH]c(=O)c1 (stereo not drawn) [Compound 59]
60 nM | ≤ 100 nM | 96% | > 75% | 2 nM | ≤ 100 nM | CC(C)(C(=O)NCc1cc(Cl)c(C2CCC(=O)NC2=O)c(Cl)c1)c1cccc(S(N)(=O)=O)c1 (stereo not drawn) [Compound 60]
60 nM | ≤ 100 nM | 97% | > 75% | 2 nM | ≤ 100 nM | CNS(=O)(=O)c1ccc(C(C)(C)C(=O)NCc2cc(Cl)c(C3CCC(=O)NC3=O)c(Cl)c2)cc1 (stereo not drawn) [Compound 61]
50 nM | ≤ 100 nM | 96% | > 75% | 2 nM | ≤ 100 nM | CC(C)(C(=O)NCc1cc(Cl)c(C2CCC(=O)NC2=O)c(Cl)c1)c1cccc(S(C)(=O)=O)c1 (stereo not drawn) [Compound 62]
140 nM | 100 to 1000 nM | 62% | 50 to 75% | 91 nM | ≤ 100 nM | CC(C)(C(=O)NCc1cc(Cl)c(C2CCC(=O)NC2=O)c(Cl)c1)c1ccnc2ccccc12 (stereo not drawn) [Compound 63]
490 nM | 100 to 1000 nM | 86% | > 75% | 43 nM | ≤ 100 nM | CC(C)(C(=O)NCc1ccc(C2CCC(=O)NC2=O)c(Br)c1)c1ccc(F)cc1 (stereo not drawn) [Compound 64]
140 nM | 100 to 1000 nM | 98% | > 75% | 1 nM | ≤ 100 nM | CC(C)(C(=O)NCc1cc(Cl)c(C2CCC(=O)NC2=O)c(Cl)c1)c1cccc(C(N)=O)c1 (stereo not drawn) [Compound 65]
90 nM | ≤ 100 nM | 96% | > 75% | 3 nM | ≤ 100 nM | CC(C)(C(=O)NCc1cc(Cl)c(C2CCC(=O)NC2=O)c(Cl)c1)c1ccc(S(C)(=O)=O)cc1 (stereo not drawn) [Compound 66]
220 nM | 100 to 1000 nM | 74% | 50 to 75% | 95 nM | ≤ 100 nM | Cn1cc(C(C)(C)C(=O)NCc2cc(Cl)c(C3CCC(=O)NC3=O)c(Cl)c2)ccc1=O (stereo not drawn) [Compound 67]
90 nM | ≤ 100 nM | 97% | > 75% | 1 nM | ≤ 100 nM | CC(C)(C(=O)NCc1cc(Cl)c(C2CCC(=O)NC2=O)c(Cl)c1)c1c(F)cncc1F (stereo not drawn) [Compound 68]
60 nM | ≤ 100 nM | 97% | > 75% | 1 nM | ≤ 100 nM | CC(C)(C(=O)NCc1cc(Cl)c(C2CCC(=O)NC2=O)c(Cl)c1)c1ccc2[nH]cnc2c1 (stereo not drawn) [Compound 69]
60 nM | ≤ 100 nM | 97% | > 75% | 0.5 nM | ≤ 100 nM | CC(C)(C(=O)NCc1cc(Cl)c(C2CCC(=O)NC2=O)c(Cl)c1)c1ccc2[nH]ncc2c1 (stereo not drawn) [Compound 70]

EC50 (CRBN-DDB1) | EC50 (CRBN-DDB1; HTRF class, Cereblon binding) | Dmax (NEK7; read-out: NEK7 NanoBiT Dmax) | Dmax (NEK7; [1]) | DC50 (NEK7; read-out: NEK7 NanoBiT DC50) | DC50 (NEK7; [2]) | SMILES
140 nM | 100 to 1000 nM | 90% | > 75% | 9 nM | ≤ 100 nM | CN(C)c1ccc(C(C)(C)C(=O)NCc2cc(Cl)c(C3CCC(=O)NC3=O)c(Cl)c2)cc1 (stereo not drawn) [Compound 71]
470 nM | 100 to 1000 nM | 90% | > 75% | 11 nM | ≤ 100 nM | Cn1c(=O)[nH]c2cc(C(C)(C)C(=O)NCc3cc(Cl)c(C4CCC(=O)NC4=O)c(Cl)c3)ccc21 (stereo not drawn) [Compound 72]
170 nM | 100 to 1000 nM | 93% | > 75% | 4 nM | ≤ 100 nM | CC(C)(C(=O)NCc1cc(Cl)c(C2CCC(=O)NC2=O)c(Cl)c1)c1cc(F)nc(F)c1 (stereo not drawn) [Compound 73]
30 nM | ≤ 100 nM | 97% | > 75% | 1 nM | ≤ 100 nM | CC(C)(C(=O)NCc1cc(Cl)c(C2CCC(=O)NC2=O)c(Cl)c1)c1ccc2ncsc2c1 (stereo not drawn) [Compound 74]
300 nM | 100 to 1000 nM | 92% | > 75% | 14 nM | ≤ 100 nM | Cn1ccc(C(C)(C)C(=O)NCc2cc(Cl)c(C3CCC(=O)NC3=O)c(Cl)c2)cc1=O (stereo not drawn) [Compound 75]
70 nM | ≤ 100 nM | 95% | > 75% | 3 nM | ≤ 100 nM | CC(C)(C(=O)NCc1cc(Cl)c(C2CCC(=O)NC2=O)c(Cl)c1)c1ccc2[nH]c(=O)oc2c1 (stereo not drawn) [Compound 77]
60 nM | ≤ 100 nM | 97% | > 75% | 0.4 nM | ≤ 100 nM | Cn1ncc2ccc(C(C)(C)C(=O)NCc3cc(Cl)c(C4CCC(=O)NC4=O)c(Cl)c3)cc21 (stereo not drawn) [Compound 78]
250 nM | 100 to 1000 nM | 83% | > 75% | 92 nM | ≤ 100 nM | CC(C)(C(=O)NCc1cc(Cl)c(C2CCC(=O)NC2=O)c(Cl)c1)c1ccc(=O)[nH]c1 (stereo not drawn) [Compound 79]
30 nM | ≤ 100 nM | 97% | > 75% | 1 nM | ≤ 100 nM | CC(C)(C(=O)NCc1cc(Cl)c(C2CCC(=O)NC2=O)c(Cl)c1)c1ccc(O)c(F)c1 (stereo not drawn) [Compound 80]
70 nM | ≤ 100 nM | 98% | > 75% | 0.4 nM | ≤ 100 nM | CC(C)(C(=O)NCc1cc(Cl)c(C2CCC(=O)NC2=O)c(Cl)c1)c1ccc2nonc2c1 (stereo not drawn) [Compound 81]
90 nM | ≤ 100 nM | 96% | > 75% | 1 nM | ≤ 100 nM | CC(C)(C(=O)NCc1cc(Cl)c(C2CCC(=O)NC2=O)c(Cl)c1)c1ccn2nccc2c1 (stereo not drawn) [Compound 82]
140 nM | 100 to 1000 nM | 94% | > 75% | 7 nM | ≤ 100 nM | CC(C)(C(=O)NCc1cc(Cl)c(C2CCC(=O)NC2=O)c(Cl)c1)c1ccc(C(N)=O)cc1 (stereo not drawn) [Compound 83]
180 nM | 100 to 1000 nM | 93% | > 75% | 22 nM | ≤ 100 nM | CC(C)(C(=O)NCc1cc(Cl)c(C2CCC(=O)NC2=O)c(Cl)c1)c1cc[nH]c(=O)c1 (stereo not drawn) [Compound 84]
40 nM | ≤ 100 nM | 81% | > 75% | 11 nM | ≤ 100 nM | CC(C)(C(=O)NCc1cc(Cl)c(C2CCC(=O)NC2=O)c(Cl)c1)c1cncc(F)c1 (stereo not drawn) [Compound 85]
160 nM | 100 to 1000 nM | 85% | > 75% | 21 nM | ≤ 100 nM | Cc1cc(C(C)(C)C(=O)NCc2cc(Cl)c(C3CCC(=O)NC3=O)c(Cl)c2)cc(C)n1 (stereo not drawn) [Compound 86]
30 nM | ≤ 100 nM | 97% | > 75% | 0.1 nM | ≤ 100 nM | CC(C)(C(=O)NCc1cc(Cl)c(C2CCC(=O)NC2=O)c(Cl)c1)c1ccc2occc2c1 (stereo not drawn) [Compound 87]
110 nM | 100 to 1000 nM | 93% | > 75% | 4 nM | ≤ 100 nM | CC(C)(C(=O)NCc1cc(Cl)c(C2CCC(=O)NC2=O)c(Cl)c1)c1ccncc1F (stereo not drawn) [Compound 88]
